Measurements: ChEMBL document CHEMBL1201862, “PubChem BioAssay data set” (2004)
Active and inactive are the calls of the source.

Legend:
[1] = intracellular Trypanosoma cruzi inhibitors in host cells – cell-based, plate reader, cherry-pick samples, set 3, dose response (AID 651818); type: functional;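 also: compounds incubated with infected cells for about four days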
[2] = P. falciparum Dd2 growth inhibitors, dose response, SYBR Green, cherry-picked samples (AID 1159567); type: functional, cell-based
[3] = molecular target: T1, Galanin receptor type 3 (Homo sapiens, UniProt O60755); experiment: Fluorescence-based cell-based primary high throughput dose response assay to identify antagonists of the Galanin Receptor 3 (GalR3).; type: functional
T1 sequence (O60755 whole entry): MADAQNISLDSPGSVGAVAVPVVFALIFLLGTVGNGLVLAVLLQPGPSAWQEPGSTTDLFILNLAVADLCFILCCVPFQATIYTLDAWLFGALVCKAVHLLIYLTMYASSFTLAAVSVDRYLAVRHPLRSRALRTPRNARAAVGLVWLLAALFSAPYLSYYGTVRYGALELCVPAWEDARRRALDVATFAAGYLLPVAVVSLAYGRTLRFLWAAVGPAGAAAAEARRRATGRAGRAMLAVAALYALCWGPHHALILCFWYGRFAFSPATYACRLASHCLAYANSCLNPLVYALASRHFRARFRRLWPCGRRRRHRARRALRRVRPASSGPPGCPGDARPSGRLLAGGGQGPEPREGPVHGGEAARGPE

[4] = cells; type: functional, cell-based; conditions: HEK-CNG
[5] = molecular target: Cytochrome P450 2C9 (Homo sapiens, UniProt P11712)
Sequence of Cytochrome P450 2C9 (P11712 whole entry, the tested form may be a part): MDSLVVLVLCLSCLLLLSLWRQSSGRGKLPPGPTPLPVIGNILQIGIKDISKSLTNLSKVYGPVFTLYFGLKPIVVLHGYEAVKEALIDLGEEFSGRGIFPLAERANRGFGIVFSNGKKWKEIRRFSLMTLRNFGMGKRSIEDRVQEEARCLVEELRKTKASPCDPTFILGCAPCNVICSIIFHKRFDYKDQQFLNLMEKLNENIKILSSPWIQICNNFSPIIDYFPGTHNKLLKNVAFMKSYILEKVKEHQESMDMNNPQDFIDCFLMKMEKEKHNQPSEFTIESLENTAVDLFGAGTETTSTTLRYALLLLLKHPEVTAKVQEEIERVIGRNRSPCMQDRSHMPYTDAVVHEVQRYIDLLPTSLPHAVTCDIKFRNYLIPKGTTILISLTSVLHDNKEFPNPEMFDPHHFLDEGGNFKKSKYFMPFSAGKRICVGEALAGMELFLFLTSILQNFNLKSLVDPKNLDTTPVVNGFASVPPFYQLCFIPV

[6] = molecular target: T2, RNA-binding protein pos-1 (Caenorhabditis elegans, UniProt G5EF15); experiment: inhibitors of POS-1/mex-3 RNA binding, dose response, biochemical, fluorescence polarization (AID 1964);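 also: purified POS-1 fused to maltose binding protein made in E. coli; potency of compounds blocking POS-1 binding to fluorescent RNA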
T2 sequence (G5EF15 whole entry): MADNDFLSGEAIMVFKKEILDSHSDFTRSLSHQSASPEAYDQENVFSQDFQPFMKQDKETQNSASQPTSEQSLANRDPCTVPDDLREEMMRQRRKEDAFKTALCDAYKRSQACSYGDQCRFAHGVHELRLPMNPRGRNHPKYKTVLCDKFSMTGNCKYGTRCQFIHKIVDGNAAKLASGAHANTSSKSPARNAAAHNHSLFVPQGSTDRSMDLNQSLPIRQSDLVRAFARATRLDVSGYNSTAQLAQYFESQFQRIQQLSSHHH

[7] = molecular target: T3, Zinc finger protein mex-5 (Caenorhabditis elegans, UniProt Q9XUB2); experiment: MEX-5/TCR-2 RNA interaction inhibitors, dose response, biochemical, C. elegans, fluorescence polarization (AID 1960)
T3 sequence (Q9XUB2 whole entry): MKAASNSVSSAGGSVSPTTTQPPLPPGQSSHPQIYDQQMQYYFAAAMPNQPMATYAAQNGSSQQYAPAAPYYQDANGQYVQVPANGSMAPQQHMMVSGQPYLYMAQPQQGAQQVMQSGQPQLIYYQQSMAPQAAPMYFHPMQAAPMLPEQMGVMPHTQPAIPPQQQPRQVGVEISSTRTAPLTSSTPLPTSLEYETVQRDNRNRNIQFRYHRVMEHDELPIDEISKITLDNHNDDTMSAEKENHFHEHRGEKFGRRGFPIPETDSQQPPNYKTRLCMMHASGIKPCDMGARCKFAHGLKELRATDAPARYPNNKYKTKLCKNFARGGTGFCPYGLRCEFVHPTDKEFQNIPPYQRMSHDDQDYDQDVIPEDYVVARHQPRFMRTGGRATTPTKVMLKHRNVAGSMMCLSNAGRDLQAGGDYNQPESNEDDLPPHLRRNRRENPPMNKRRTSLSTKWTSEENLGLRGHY

[8] = molecular target: T4, Endoribonuclease toxin MazF (Escherichia coli K-12, UniProt P0AE70); experiment: MazF toxin RNase activators, dose response, biochemical, fluorescence, single-stranded RNA substrate, uHTS hits (AID 588481); type: functional
T4 sequence (P0AE70 whole entry): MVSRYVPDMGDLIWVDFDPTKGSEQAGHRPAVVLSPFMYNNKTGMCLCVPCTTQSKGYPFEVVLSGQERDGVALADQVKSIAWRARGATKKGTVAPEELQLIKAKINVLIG

[9] = molecular target: T4, Endoribonuclease toxin MazF; experiment: fluorescent RNA oligo signal without MazF, dose response, counter-screen for MazEF activator project, biochemical, fluorescence, single-stranded RNase substrate (AID 588502); type: functional
[10] = Shn3 3'UTR reporter inhibitors, dose response, cell-based, Clone20 osteoblasts, firefly luciferase, cherry-picked (AID 624132); type: functional;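 also: firefly luciferase luminescence from reporter carrying the Shn3 3'UTR in osteoblasts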
[11] = HepG2 cell cytotoxicity, dose response, cytotoxicity control for Shn3 inhibitor project, CellTiter-Glo, cherry-picked (AID 624134); type: functional, cell-based
[12] = control 3'UTR Renilla luciferase suppression, dose response, counter-screen for Shn3 inhibitor project, cell-based, Clone20-Shn3RL, cherry-picked (AID 624133); type: functional
[13] = inhibitors of clade B AD8 Env fusion, dose response, cell-based, cherry-pick (AID 652062); type: functional;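 also: luciferase signal from cell-cell fusion driven by HIV-1 clade B AD8 Env; potency is for inhibitors of fusion seen as a drop in luminescence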
[14] = molecular target: T5, DNA repair and recombination protein RAD54-like (Homo sapiens, UniProt Q92698); experiment: inhibitors of human RAD54 branch migration, confirmation, biochemical, fluorescence, cherry-picked samples, dose series (AID 651657); type: functional
T5 sequence (Q92698 whole entry): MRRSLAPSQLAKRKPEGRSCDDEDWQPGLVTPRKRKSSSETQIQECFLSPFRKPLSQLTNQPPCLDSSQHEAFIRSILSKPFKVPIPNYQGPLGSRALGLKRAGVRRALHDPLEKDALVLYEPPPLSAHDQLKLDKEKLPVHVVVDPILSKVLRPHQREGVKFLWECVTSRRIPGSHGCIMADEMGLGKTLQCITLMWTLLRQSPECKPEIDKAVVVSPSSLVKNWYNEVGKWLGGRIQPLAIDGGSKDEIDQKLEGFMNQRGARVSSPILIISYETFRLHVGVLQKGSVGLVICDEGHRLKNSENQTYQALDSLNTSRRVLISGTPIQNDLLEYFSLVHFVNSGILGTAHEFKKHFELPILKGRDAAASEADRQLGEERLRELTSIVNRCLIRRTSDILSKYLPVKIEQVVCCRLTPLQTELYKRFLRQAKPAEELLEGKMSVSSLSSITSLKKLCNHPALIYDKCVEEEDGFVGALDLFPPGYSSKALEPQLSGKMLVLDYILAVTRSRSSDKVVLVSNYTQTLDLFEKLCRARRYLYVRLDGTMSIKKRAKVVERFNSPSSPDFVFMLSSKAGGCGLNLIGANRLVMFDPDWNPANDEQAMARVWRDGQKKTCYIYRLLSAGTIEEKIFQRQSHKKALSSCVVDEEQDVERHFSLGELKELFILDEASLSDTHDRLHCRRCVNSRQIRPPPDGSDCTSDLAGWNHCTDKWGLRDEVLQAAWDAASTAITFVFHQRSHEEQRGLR

[15] = inhibitors of intracellular T. cruzi replication, confirmation, NIH3T3 host cells, beta-gal luminescence (AID 2044); type: functional, cell-based;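 also: intracellular parasites grown in NIH/3T3 mouse fibroblasts as host cells; luminescent beta-galactosidase reporter signal from transgenic T. cruzi replicating inside host cells; inhibitors lower the luminescence signal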
[16] = microbe, parasite or virus in culture; type: functional; conditions: Mycobacterium tuberculosis
[17] = cytotoxicity toward NIH3T3 fibroblasts, dose response, counter-screen, cell-based, ATP luminescence, mouse fibroblasts (AID 2010); type: functional;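 also: cells exposed to compound for about 90 hours before reading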
[18] = molecular target: T6, Replicative DNA helicase DnaB (Mycobacterium tuberculosis, UniProt P9WMR3); experiment: DnaB intein splicing inhibitors, dose response, biochemical, cell-free fluorescence (AID 449749); type: functional
T6 sequence (P9WMR3 whole entry): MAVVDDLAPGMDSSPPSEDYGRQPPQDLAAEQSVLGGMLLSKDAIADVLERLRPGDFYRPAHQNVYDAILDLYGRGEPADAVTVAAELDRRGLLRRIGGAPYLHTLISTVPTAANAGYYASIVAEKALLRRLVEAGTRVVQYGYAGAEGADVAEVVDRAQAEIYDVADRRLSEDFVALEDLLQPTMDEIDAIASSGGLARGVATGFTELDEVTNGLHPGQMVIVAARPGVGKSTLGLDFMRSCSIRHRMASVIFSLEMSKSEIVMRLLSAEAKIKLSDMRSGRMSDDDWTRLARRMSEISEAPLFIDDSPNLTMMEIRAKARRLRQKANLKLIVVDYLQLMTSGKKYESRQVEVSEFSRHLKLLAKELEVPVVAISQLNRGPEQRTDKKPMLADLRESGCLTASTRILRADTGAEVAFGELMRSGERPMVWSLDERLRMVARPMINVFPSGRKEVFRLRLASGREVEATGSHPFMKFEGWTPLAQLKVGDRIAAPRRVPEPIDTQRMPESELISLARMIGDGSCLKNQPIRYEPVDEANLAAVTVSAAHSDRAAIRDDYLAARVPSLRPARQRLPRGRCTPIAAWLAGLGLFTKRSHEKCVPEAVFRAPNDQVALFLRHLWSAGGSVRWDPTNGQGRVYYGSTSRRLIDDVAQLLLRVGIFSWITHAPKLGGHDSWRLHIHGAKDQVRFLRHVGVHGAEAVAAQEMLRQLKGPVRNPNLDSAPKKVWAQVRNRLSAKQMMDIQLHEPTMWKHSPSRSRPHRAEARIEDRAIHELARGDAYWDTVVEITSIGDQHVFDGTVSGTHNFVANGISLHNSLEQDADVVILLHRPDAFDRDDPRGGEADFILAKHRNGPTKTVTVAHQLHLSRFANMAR

[19] = molecular target: T7, Protein RecA (Mycobacterium tuberculosis, UniProt P9WHJ3); experiment: Fluorescence Cell-Free Homogeneous Dose Retest to Identify Inhibitors of RecA-Intein Splicing Activity. [Related pubchem assays (depositor defined):AID2097, AID2223, AID489010, AID492950]; type: functional
T7 sequence (P9WHJ3 whole entry): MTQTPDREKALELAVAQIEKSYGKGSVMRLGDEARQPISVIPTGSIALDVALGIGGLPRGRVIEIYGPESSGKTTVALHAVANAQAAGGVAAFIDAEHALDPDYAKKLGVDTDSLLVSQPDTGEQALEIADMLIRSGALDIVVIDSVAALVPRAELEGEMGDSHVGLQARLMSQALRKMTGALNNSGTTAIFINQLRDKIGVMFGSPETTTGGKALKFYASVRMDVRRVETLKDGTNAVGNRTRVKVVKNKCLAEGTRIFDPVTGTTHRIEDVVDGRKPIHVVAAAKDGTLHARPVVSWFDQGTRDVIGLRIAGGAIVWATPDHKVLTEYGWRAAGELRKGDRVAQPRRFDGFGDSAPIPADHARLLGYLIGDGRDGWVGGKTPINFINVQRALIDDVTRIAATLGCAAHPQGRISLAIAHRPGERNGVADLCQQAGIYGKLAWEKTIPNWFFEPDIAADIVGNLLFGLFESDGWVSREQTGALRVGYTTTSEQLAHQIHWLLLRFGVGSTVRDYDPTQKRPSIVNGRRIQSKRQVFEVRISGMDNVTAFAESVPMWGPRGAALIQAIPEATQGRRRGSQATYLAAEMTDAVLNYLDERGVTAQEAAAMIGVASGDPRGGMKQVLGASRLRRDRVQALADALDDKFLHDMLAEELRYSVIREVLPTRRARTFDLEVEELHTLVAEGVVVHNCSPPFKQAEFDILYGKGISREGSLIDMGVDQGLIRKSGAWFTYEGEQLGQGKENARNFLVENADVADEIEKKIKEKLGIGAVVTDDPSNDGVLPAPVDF

SMILES: C[C@@H]1CN([C@H](C)CO)C(=O)c2cccc(NC(=O)Nc3cccc4ccccc34)c2O[C@@H]1CN(C)C(=O)Nc1ccc(F)cc1
- AC50 [1]: 3.81 µM (active)
- AC50 [2]: 3.76 µM (active)

SMILES: Cc1ccc(S(=O)(=O)Nc2ccc3c(c2)CC(=O)N([C@@H](C)CO)C[C@@H](C)[C@@H](CN(C)Cc2ccc(C(=O)Nc4ccccc4N)cc2)O3)cc1
- AC50 [1]: 2.94 µM (active)

SMILES: COc1ccc(-c2cn(-c3ccc(C)c(Cl)c3)c(S)n2)cc1OC
- IC50 [3]: > 29.9 µM (inactive)
- EC50 [4]: > 29.9 µM (inactive)

SMILES: Nc1nn2c(O)c3c(nc2c1N=Nc1ccccc1)CCCC3
- IC50 [3]: 3.7 µM (active)
- EC50 [4]: > 29.9 µM (inactive)
- AC50 [5]: 8.91 µM (inconclusive)

SMILES: Cc1cc(/C=C2\C(=O)NC(=O)N(Cc3ccccc3)C2=O)c(C)n1C1CC1
- EC50 [6]: > 300 µM (not active)
- EC50 [7]: > 300 µM (not active)
- EC50 [8]: > 99 µM (inactive)
- EC50 [9]: 23.4 µM (inactive)

SMILES: C=CCNc1nc2c(c(=O)n(C)c(=O)n2C)n1CCCCCC
- AC50 [10]: 0.761 µM (active)
- AC50 [11]: 2.6 µM (active)
- AC50 [12]: 1.18 µM (active)
- IC50 [3]: 1.95 µM (active)
- EC50 [4]: > 29.9 µM (inactive)
- AC50 [13]: 7.74 µM (active)

SMILES: COc1ccc(CNC(=O)C(C#N)c2nc3ccccc3nc2N2CCCC2)cc1 (stereo not drawn)
- EC50 [8]: 9.99 µM (active)
- EC50 [9]: 14.5 µM (active)

SMILES: CN(C)CCCNc1nc(-c2ccccc2)nc2ccccc12
- AC50 [14]: 28.8 µM (active)

SMILES: COc1ccc(S(=O)(=O)Nc2ccc3c(c2)CC(=O)N([C@@H](C)CO)C[C@H](C)[C@H](CN(C)Cc2ccc(Cl)c(Cl)c2)O3)cc1
- AC50 [1]: 5.64 µM (active)

SMILES: Cc1cccn2c(=O)c3cc(C#N)c(=O)n(CCCN4CCOCC4)c3nc12
- AC50 [14]: 48.9 µM (active)

SMILES: Cc1ccc(S(=O)(=O)Nc2cccc3c2O[C@@H](CN(C)Cc2ccc(C(=O)Nc4ccccc4N)cc2)[C@@H](C)CN([C@H](C)CO)C3=O)cc1
- AC50 [1]: 5.8 µM (active)

SMILES: CN1CCc2[nH]c3ccc(C(=O)NN)cc3c2C1
- AC50 [14]: 100 µM (inactive)

SMILES: Cc1cccc2cc3c(N)c(C(=O)N4CCc5ccccc54)sc3nc12
- EC50 [8]: > 99 µM (inactive)
- EC50 [9]: 43.4 µM (inactive)

SMILES: COc1ccc(Nc2nc(N3CCCCC3)nc3ccccc23)c(OC)c1
- EC50 [15]: 0.578 µM (active)
- CC50 [16]: > 40 µM (active)
- EC50 [17]: > 60 µM (inconclusive)
- AC50 [18]: 280 µM (active)
- EC50 [19]: 114 µM (active)
- AC50 [14]: 62.2 µM (active)
